Reference: patent publication US9695195B2, “5-HT3 receptor antagonists” (Takeda Pharmaceutical Company Limited, priority 2012, dated 2017)
Counter-ions that a name gives are not always drawn.

The compounds below were run against 5HT3a receptor (Homo sapiens (Human), UniProt P46098) (assay: Inhibition of Ca flux activity of 5HT3 in vitro assay). Conditions: 5HT3a expressed in HEK-293T cells; 5HT 216 nM; approximate values.
Format: cell-based
Procedure: The 5HT3 antagonist activity of the compounds of the invention was determined by measuring the ability of the compounds to inhibit the calcium flux activity of […] receptor expressed in HEK-293T cells. HEK-293T cells were transfected with the 5HT3a expression construct using Xtreme Gene 9 (Roche) in 150 mm tissue culture treated plates and incubated for 24 hours at 37° C. Cells were then split and plated at a density of 60K cells/well in poly-lysine coated, black 96-well plates with clear bottoms (BD BioSciences) and incubated overnight at 37° C. Growth media was removed and cells loaded with 200 uL calcium indicator dye in HBSS containing 20 mM HEPES (Calcium 5 Assay kit, Molecular Devices) and incubated at 37° C. for 1 hour. While cells were incubating, the 10× antagonist and agonist/antagonist addition plates were made. For 10× antagonist plate: half log serial dilutions (final concentrations range from 10^−7 through 10^−10 with the bottom well a negative, no ligand control) were made from test compounds in DMSO at a 1000× concentration and then diluted to 10× in HBSS/20 mM HEPES. For addition plate: 5HT was diluted to 100× in HBSS/20 mM HEPES (final concentration in the assay-216 nM) and 15 uL was added to each well of the addition plate, 15 uL of 10× compound was also added to the addition plate, and finally 120 uL of HBSS/20 mM HEPES (for a total of 150 uL). Cells were then removed from the incubator and equilibrated to room temperature for 10 minutes, then 22.5 uL of 10× test compounds were added in triplicate to the plates and incubated at room temperature for 10 minutes (Tropisetron was used as a positive control in every assay). Test plate and addition plate were loaded into the FlexStation III (Molecular Devices), and using the fluidics, 22.5 uL compound additions were made (at t=˜17 seconds), and fluorescence was measured for 90 seconds, reading every 2.2 seconds. Data sets were analyzed as max minus min using Software Max Pro (Molecular Devices). IC50 curves were generated using non-linear regression in GraphPad Prism.

Chain of 5HT3a receptor (P46098 24-478): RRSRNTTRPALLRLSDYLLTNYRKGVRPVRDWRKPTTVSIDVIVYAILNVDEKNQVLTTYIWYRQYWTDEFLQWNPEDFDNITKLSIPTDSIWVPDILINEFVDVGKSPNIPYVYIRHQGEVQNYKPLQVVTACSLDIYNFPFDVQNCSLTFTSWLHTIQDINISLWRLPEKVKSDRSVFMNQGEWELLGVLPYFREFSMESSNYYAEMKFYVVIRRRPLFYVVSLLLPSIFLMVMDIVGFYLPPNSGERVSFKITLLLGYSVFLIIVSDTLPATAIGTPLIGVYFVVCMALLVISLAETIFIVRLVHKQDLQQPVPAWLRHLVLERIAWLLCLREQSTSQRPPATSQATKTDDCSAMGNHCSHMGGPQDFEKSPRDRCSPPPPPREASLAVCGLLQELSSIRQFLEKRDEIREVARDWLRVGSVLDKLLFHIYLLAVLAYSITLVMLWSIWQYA

| Compound | IC50 [nM] |
| --- | --- |
| O=C(OC1C[C@H]2COC[C@@H](C1)N2CCF)c1cn(CC(F)F)c2ccc(F)cc12 (stereo partly drawn) [Compound 33, (1R,5S,7S)-9-(2-fluoroethyl)-3-oxa-9-azabicyclo[3.3.1] nonan-7-yl 1-(2,2-difluoroethyl)-5-fluoro-1H-indole-3-carboxylate, 2,2,2-trifluoroacetate] | 14.4 |
| CN1[C@@H]2COC[C@H]1C[C@@H](OC(=O)c1cn(-c3cncs3)c3ccccc13)C2 [Compound 183, (1R,5S,7S)-9-methyl-3-oxa-9-azabicyclo[3.3.1]nonan-7-yl 1-(thiazol-5-yl)-1H-indole-3-carboxylate] | 1.27 |
| CN1[C@@H]2CCC[C@H]1CC(OC(=O)c1cn(S(C)(=O)=O)c3ccc(F)cc13)C2 (stereo partly drawn) [Compound 34, (1R,3R,5S)-9-methyl-9-aza-bicyclo[3.3.1]nonan-3-yl 5-fluoro-1-(methylsulfonyl)-1H-indole-3-carboxylate, 2,2,2-trifluoroacetate] | 0.74 |
| CN1[C@@H]2COC[C@H]1C[C@@H](OC(=O)c1cn(-c3ccc(F)nn3)c3ccccc13)C2 [Compound 137, (1R,5S,7s)-9-methyl-3-oxa-9-azabicyclo[3.3.1]nonan-7-yl 1-(6-fluoropyridazin-3-yl)-1H-indole-3-carboxylate] | 0.681 |
| CN1[C@@H]2CC[C@H]1CC(OC(=O)c1cn(CC(F)(F)F)c3ccc(F)cc13)C2 (stereo partly drawn) [Compound 1, (1R,3R,5S)-8-methyl-8-aza-bicyclo[3.2.1]octan-3-yl 5-fluoro-1-(2,2,2-trifluoro-ethyl)-1H-indole-3-carboxylate; 2,2,2-trifluoroacetate] | 2.13 |
| CN1[C@@H]2CC[C@H]1CC(OC(=O)c1nn(CC(F)(F)F)c3ccccc13)C2 (stereo partly drawn) [Compound 17, (1R,3R,5S)-8-methyl-8-aza-bicyclo[3.2.1]octan-3-yl 1-(2,2,2-trifluoroethyl)-1H-indazole-3-carboxylate, 2,2,2-trifluoroacetate] | 4.39 |
| Cc1c(C(=O)OC2C[C@H]3CC[C@@H](C2)N3C)c2ccccc2n1CCF (stereo partly drawn) [Compound 15, (1R,3R,5S)-8-methyl-8-aza-bicyclo[3.2.1]octan-3-yl 1-(2-fluoroethyl)-2-methyl-1H-indole-3-carboxylate, 2,2,2-trifluoroacetate] | 0.53 |
| CN1[C@@H]2CCC[C@H]1CC(OC(=O)c1c(Cl)n(CCF)c3ccccc13)C2 (stereo partly drawn) [Compound 30, (1R,3R,5S)-9-methyl-9-aza-bicyclo[3.3.1]nonan-3-yl 2-chloro-1-(2-fluoroethyl)-1H-indole-3-carboxylate, 2,2,2-trifluoroacetate] | 0.2 |
| CN1[C@@H]2COC[C@H]1CC(OC(=O)c1cn(-c3cncnc3)c3ccccc13)C2 (stereo partly drawn) [Compound 189, (1R,5S,7S)-9-methyl-3-oxa-9-azabicyclo[3.3.1]nonan-7-yl 1-(pyrimidin-5-yl)-1H-indole-3-carboxylate] | 0.46 |
| CN1[C@@H]2CC[C@H]1C[C@@H](OC(=O)c1c(Cl)n(S(C)(=O)=O)c3ccccc13)C2 [Compound 13, (1R,3R,5S)-8-methyl-8-aza-bicyclo[3.2.1]octan-3-yl 2-chloro-1-(methylsulfonyl)-1H-indole-3-carboxylate, 2,2,2-trifluoroacetate] | 0.93 |
| CN1[C@@H]2COC[C@H]1CC(OC(=O)c1cn(-c3ncccn3)c3ccccc13)C2 (stereo partly drawn) [Compound 188, (1R,5S,7S)-9-methyl-3-oxa-9-azabicyclo[3.3.1]nonan-7-yl 1-(pyrimidin-2-yl)-1H-indole-3-carboxylate] | 1.75 |
| O=C(OC1C[C@H]2COC[C@@H](C1)N2)c1cn(-c2ncccn2)c2ccccc12 (stereo partly drawn) [Compound 25, (1R,5S,7S)-3-oxa-9-aza-bicyclo[3.3.1]nonan-7-yl 1-(pyrimidin-2-yl)-1H-indole-3-carboxylate, 2,2,2-trifluoro-acetate] | 3.88 |
| O=C(OC1CC2CCC(C1)N2)c1cn(CC(F)(F)F)c2ccccc12 [Compound 14, (1R,3R,5S)-8-azabicyclo[3.2.1] octan-3-yl 1-(2,2,2-trifluoroethyl)-1H-indole-3-carboxylate, 2,2,2-trifluoroacetate] | 3.71 |
| O=C(OC1CC2COCC(C1)N2)c1cn(-c2ccns2)c2ccccc12 [Compound 155, (1R,5S,7s)-3-oxa-9-aza-bicyclo[3.3.1]nonan-7-yl 1-(iso-thiazol-5-yl)-1H-indole-3-carboxylate, 2,2,2-trifluoroacetic acid salt] | 1.26 |
| CN1[C@@H]2CCC[C@H]1CC(OC(=O)c1nn(CCF)c3ccccc13)C2 (stereo partly drawn) [Compound 16, (1R,3R,5S)-9-methyl-9-aza-bicyclo[3.3.1]nonan-3-yl 1-(2-fluoroethyl)-1H-indazole-3-carboxylate, 2,2,2-trifluoro-acetate; 2,2,2-trifluoroacetate] | 3.25 |
| CN1[C@@H]2CCC[C@H]1CC(OC(=O)c1nn(S(C)(=O)=O)c3ccccc13)C2 (stereo partly drawn) [Compound 4, (1R,3R,5S)-9-methyl-9-aza-bicyclo[3.3.1]nonan-3-yl 1-(methylsulfonyl)-1H-indazole-3-carboxylate, 2,2,2-trifluoroacetate] | 1.4 |
| CN1[C@@H]2CC[C@H]1C[C@H](OC(=O)c1c3n(c4ccccc14)CCO3)C2 [Compound 28, (1R,3R,5S)-8-methyl-8-aza-bicyclo[3.2.1]octan-3-yl 2,3-dihydrooxazolo[3.2-a] indole-9-carboxylate, 2,2,2-trifluoroacetate] | 1.08 |
| CN1[C@@H]2CC[C@H]1C[C@H](OC(=O)c1cn(CC(F)F)c3ccc(F)cc13)C2 [Compound 27, (1R,3R,5S)-8-methyl-8-aza-bicyclo[3.2.1]octan-3-yl 1-(2,2-difluoroethyl)-5-fluoro-1H-indole-3-carboxylate, 2,2,2-trifluoroacetate] | 0.89 |
| O=C(OC1CC2COCC(C1)N2)c1cn(-c2ccsn2)c2ccccc12 [Compound 145, (1R,5S,7s)-3-oxa-9-aza-bicyclo[3.3.1]nonan-7-yl 1-(iso-thiazol-3-yl)-1H-indole-3-carboxylate, 2,2,2-trifluoroacetic acid salt] | 2.71 |
| N#CCn1cc(C(=O)OC2C[C@H]3COC[C@@H](C2)N3)c2ccccc21 (stereo partly drawn) [Compound 187, (1R,5S,7S)-3-oxa-9-aza-bicyclo[3.3.1]nonan-7-yl 1-(cyanomethyl)-1H-indole-3-carboxylate] | 1.18 |
| O=C(NC1CC2COCC(C1)N2)c1cn(CC(F)(F)F)c2ccc(F)cc12 [Compound 6, N-((1R,5S,7S)-3-oxa-9-aza-bicyclo[3.3.1]nonan-7-yl)-5-fluoro-1-(2,2,2-trifluoro-ethyl)-1H-indole-3-carboxamide, 2,2,2-trifluoroacetate] | 2.33 |
| CN1[C@@H]2COC[C@H]1C[C@@H](OC(=O)c1cn(CC(F)(F)F)c3ccc(F)cc13)C2 [Compound 32, (1R,5S,7S)-9-methyl-3-oxa-9-azabicyclo[3.3.1]nonan-7-yl 5-fluoro-1-(2,2,2-trifluoroethyl)-1H-indole-3-carboxylate, 2,2,2-trifluoroacetate] | 1.38 |
| CN1[C@@H]2CC[C@H]1CC(NC(=O)c1cn(S(C)(=O)=O)c3ccc(F)cc13)C2 (stereo partly drawn) [Compound 18, 5-fluoro-N-((1R,3R,5S)-8-methyl-8-azabicyclo[3.2.1]octan-3-yl)-1-(methylsulfonyl)-1H-indole-3-carboxamide, 2,2,2-trifluoroacetate] | 4.06 |
| CN1[C@@H]2COC[C@H]1CC(OC(=O)c1cn(-c3ccsn3)c3ccccc13)C2 (stereo partly drawn) [Compound 182, (1R,5S,7S)-9-methyl-3-oxa-9-azabicyclo[3.3.1]nonan-7-yl 1-(isothiazol-3-yl)-1H-indole-3-carboxylate] | 1.62 |
| CN1[C@@H]2COC[C@H]1CC(OC(=O)c1cn(-c3cnccn3)c3ccccc13)C2 (stereo partly drawn) [Compound 181, (1R,5S,7S)-9-methyl-3-oxa-9-azabicyclo[3.3.1]nonan-7-yl 1-(pyrazin-2-yl)-1H-indole-3-carboxylate] | 1.1 |
| CN1[C@@H]2COC[C@H]1CC(OC(=O)c1cn(-c3cnc(F)cn3)c3ccccc13)C2 (stereo partly drawn) [Compound 184, (1R,5S,7S)-9-methyl-3-oxa-9-aza-bicyclo[3.3.1]nonan-7-yl 1-(5-fluoropyrazin-2-yl)-1H-indole-3-carboxylate] | 1.25 |
| CN1[C@@H]2CC[C@H]1CC(OC(=O)c1cn(S(C)(=O)=O)c3ccccc13)C2 (stereo partly drawn) [Compound 26, (1R,3R,5S)-8-methyl-8-aza-bicyclo[3.2.1]octan-3-yl 1-(methylsulfonyl)-1H-indole-3-carboxylate, 2,2,2-trifluoro-acetate] | 0.54 |
| CS(=O)(=O)n1cc(C(=O)O[C@H]2C[C@H]3COC[C@@H](C2)N3)c2cc(F)ccc21 [Compound 19, (1R,5S,7S)-3-oxa-9-aza-bicyclo[3.3.1]nonan-7-yl 5-fluoro-1-(methylsulfonyl)-1H-indole-3-carboxylate, 2,2,2-trifluoroacetate] | 7.72 |
